Source: patent US11291655B2, “RAD51 inhibitors” (Cyteir Therapeutics, Inc., priority 2017, dated 2022)

Tested on: Daudi Cell Culture
Experiment: Compound primary screening in Daudi cell culture
Assay type: cell-based
Settings: Homo sapiens, 168 h; Daudi cells, 1250 cells per well, reads on Day 7
Method: Compound Primary Screening
1. Materials and Supplies
Plastic ware and consumables needed for this experiment include: Cell Culture media; Evaporation Buffer media; 100% DMSO; 96 well U-bottom sterile culture plates; 250 mL bottle; 1.5 mL Opaque amber epi tubes; Epi Tube rack; 300 mL reservoirs; 25 mL reservoir; 25 mL serological pipette tips; 5 mL serological pipette tips P1000 Pipette Tips; and P200 Pipette Tips.
Equipment needed for this experiment include: Viaflo 384 liquid handler; Eppendorf serological pipette; Eppendorf P1000 Pipette; and Eppendorf P200 Pipette
Daudi Cell Culture is also needed for this experiment.
Lastly, compounds (e.g., the compounds of this invention) to be tested are needed.
All steps were performed in a sterile environment inside the Biosafety cabinet.
A 96 well u-bottom plate was prepared by writing the experiment number, plate number, date and initials in the top right corner of the plate lid. With a sterile 300 ml reservoir, and 25 ml serological pipette, evaporation buffer media was pipetted into reservoir in 25 ml increments. Using the liquid handler, 150 ul of evaporation buffer media was pipetted from reservoir into rows A and H, and Columns 1 and 12 of the 96 well u-bottom plate. Cell cultures were counted to obtain the density of cells per ml, and the culture viability. The cell density information was used to obtain 1,000,000 cells from culture using a 5 mL serological pipette into an epi tube. The cell density information from the culture was used to calculate the number of cells and volume of media needed for the assay to seed 1250 cells in 130 ul of media per available culture well in the 96 well u-bottom plate. Rows B through F were used for cells (50 wells in total), with row G left for an empty media control. The calculation was overestimated by 10 mL to account for the dead volume in the 300 ml reservoir. Once the media volume was calculated, the appropriate volume of media was pipetted in 25 mL increments into the 250 mL bottle using a 25 mL serological pipette. The 250 ml bottle was capped tightly, and placed into a 37° C. water bath for 2 minutes. While the culture media was warming, 10 mL of fresh media was pipetted from the 500 mL culture media bottle into a sterile 25 mL reservoir. Using the Eppendorf multichannel pipette, 130 ul of media was pipetted from the 25 mL reservoir into row G of the 96 well u-bottom plate. Once the 250 mL bottle of media was warmed, the volume of culture needed was pipetted into the bottle, and mixed gently with a 25 mL serological pipette as to not create bubbles, and then the contents of the bottle were pipetted into a new 300 mL reservoir. Using the liquid handler, 130 ul of culture was pipetted from the 300 mL reservoir into rows B through F of the 96 well u-bottom plate. Once the culture was added, the plate was placed into a 37° C. incubator until the compound master plate was prepared for use.
Two 96 well u-bottom plates were prepared by writing the master plate name in the upper right corner of the plate lid. Labeling one DMSO master and the other Media Master. The compounds of interest were obtained from the laboratory freezer, and placed into a 25 well storage box with a lid, and set the box aside. The compounds were vortexed after thawing but before use. Using an automatic multichannel pipette, 20 ul of 100% DMSO was pipetted into wells B3-B11 through G3-G11 of the DMSO master plate. For each compound on the master plate, 50 ul of the compound were pipetted in the appropriate well of row 2 (reference plate map to determine appropriate well). A serial dilution was prepared beginning by aspirating 20 ul from row 2 and mixing with row 3, repeating until row 11 was reached. Using the liquid handler, 194 ul of Daudi media was dispensed into wells B2-B11 through G2-G11 of the Media master plate. Using the liquid handler, 6 ul from the DMSO master plate was aspirated and dispensed into the media master plate, mixing 100 ul twice. […]

| SMILES | EC50 |
| --- | --- |
| CC(C)OC(=O)Nc1ccc(-c2ncc(-c3ccc(NCC(F)(F)F)cc3S(=O)(=O)NC(C)(C)C)s2)cc1 [Compound I3, isopropyl N-[4-[5-[2-(tert-butylsulfamoyl)-4-(2,2,2-trifluoroethylamino)phenyl]thiazol-2-yl]phenyl]carbamate] | < 5 µM |
| CC(=O)Nc1ccc(-c2cnc(-c3ccc(NCC(C)(C)O)cc3)s2)c(S(=O)(=O)NC(C)(C)C)c1 [Compound J12, N-[3-(tert-butylsulfamoyl)-4-[2-[4-[(2-hydroxy-2-methyl-propyl)amino]phenyl]thiazol-5-yl]phenyl]acetamide] | > 10 µM |
| CC(C)OC(=O)Nc1ccc(-c2ncc(-c3ccc(C(N)=O)cc3S(=O)(=O)NC(C)(C)C)s2)cc1 [Compound I6] | < 5 µM |
| CNCCNS(=O)(=O)c1cc(NC(C)=O)ccc1-c1cnc(-c2ccc(NC(=S)NC(C)C)cc2)s1 [Compound D29] | > 10 µM |
| CC(=O)Nc1ccc(-c2cnc(-c3ccc(NC(=S)NC(C)C)cc3)s2)c(S(=O)(=O)N2CCNCC2)c1 [Compound A3] | < 5 µM |
| CC(C)OC(=O)Nc1ccc(-c2ncc(-c3ccc(NC(=O)OCc4cccnc4)cc3S(=O)(=O)NC(C)(C)C)s2)cc1 [Compound B9] | < 1 µM |
| CC(=O)Nc1ccc(-c2cnc(-c3ccc(NC(=S)NC(C)C)cc3)s2)c(S(=O)(=O)NCc2ccccn2)c1 [Compound D3] | > 10 µM |
| CC(C)OC(=O)Nc1ccc(-c2ncc(-c3ccc(NS(=O)(=O)Cc4ccccc4)cc3S(=O)(=O)NC(C)(C)C)s2)cc1 [Compound E2] | > 10 µM |
| CC(C)NC(=O)Nc1ccc(-c2ncc(-c3ccc(N4CCCC4=O)cc3S(=O)(=O)NC(C)(C)C)s2)cc1 [Compound J7] | < 10 µM |
| CC(C)OC(=O)Nc1ccc(-c2ncc(-c3ccc(NC(=O)OCCO)cc3S(=O)(=O)NC(C)(C)C)s2)cc1 [Compound B1] | < 5 µM |
| CC(=O)N(C)c1ccc(-c2cnc(-c3ccc(N)cc3)s2)c(S(=O)(=O)NC(C)(C)C)c1 [Compound E14] | > 10 µM |
| CC(=O)Nc1ccc(-c2cnc(-c3ccc(NS(C)(=O)=O)cc3)s2)c(S(=O)(=O)NC(C)(C)C)c1 [Compound G5] | > 10 µM |
| CC(=O)Nc1ccc(-c2cnc(-c3ccc(NCC(C)O)cc3)s2)c(S(=O)(=O)NC(C)(C)C)c1 (stereo not shown) [Compound J11] | > 10 µM |
| CC(=O)Nc1ccc(-c2cnc(-c3ccc(NC(=O)NC(C)C)cc3)s2)c(S(=O)(=O)NC(C)(C)C)c1 [Compound G10] | < 10 µM |
| CC(C)OC(=O)Nc1ccc(-c2ncc(-c3ccc(NC4(C)COC4)cc3S(=O)(=O)NC(C)(C)C)s2)cc1 [Compound I4] | < 5 µM |
| CC(C)OC(=O)Nc1ccc(-c2ncc(-c3ccc(NC(=O)OC(C)C)cc3S(=O)(=O)NC(C)(C)C)s2)cc1 [Compound H8] | < 1 µM |
| CCOC(=O)Nc1ccc(-c2cnc(-c3ccc(NC(=O)OC(C)C)cc3)s2)c(S(=O)(=O)NC(C)(C)C)c1 [Compound H6] | < 1 µM |

| SMILES | EC50 |
| --- | --- |
| CC(=O)Nc1ccc(-c2cnc(-c3ccc(NC(=S)NC(C)C)cc3)s2)c(S(=O)(=O)NCc2ccncc2)c1 [Compound D12] | > 10 µM |
| CC(=O)Nc1ccc(-c2cnc(-c3ccc(NC(=S)NC(C)C)cc3)s2)c(S(=O)(=O)NCC(C)(C)CO)c1 [Compound D4] | > 10 µM |
| CC(=O)Nc1ccc(-c2cnc(-c3ccc(NC(=S)NC(C)C)cc3)s2)c(S(=O)(=O)NC(CO)CO)c1 [Compound D11] | > 10 µM |
| CC(=O)Nc1ccc(-c2cnc(-c3ccc(NC(=S)NC(C)C)cc3)s2)c(S(=O)(=O)NCCN(C)C)c1 [Compound D16] | > 10 µM |
| CC(=O)Nc1ccc(-c2cnc(-c3ccc(NC(=S)NC(C)C)cc3)s2)c(S(=O)(=O)N2CCCCC2)c1 [Compound D14] | > 10 µM |
| CC(=O)Nc1ccc(-c2cnc(-c3ccc(NC(=S)NC(C)C)cc3)s2)c(S(=O)(=O)NCCCN)c1 [Compound D24] | > 10 µM |
| CC(=O)Nc1ccc(-c2ncc(-c3ccc(NC(=S)NC(C)C)cc3S(=O)(=O)NC(C)(C)C)s2)cc1 [Compound E5] | < 10 µM |
| CC(C)OC(=O)Nc1ccc(-c2ncc(-c3ccc(NC(C)C(F)(F)F)cc3S(=O)(=O)NC(C)(C)C)s2)cc1 (stereo not shown) [Compound J3, isopropyl N-[4-[5-[2-(tert-butylsulfamoyl)-4-[(2,2,2-trifluoro-1-methyl-ethyl)amino]phenyl]thiazol-2-yl]phenyl]carbamate] | < 5 µM |
| CC(C)NC(=S)Nc1ccc(-c2ncc(-c3ccc(NC(=O)NCc4ccccc4)cc3S(=O)(=O)NC(C)(C)C)s2)cc1 [Compound L10] | < 5 µM |
| CC(=O)Nc1ccc(-c2cnc(-c3ccc(NC(=S)NC(C)C)cc3)s2)c(S(=O)(=O)N[C@H](CO)C(C)C)c1 [Compound D18] | > 10 µM |
| CC(=O)Nc1ccc(-c2cnc(-c3ccc(NS(=O)(=O)c4ccccc4)cc3)s2)c(S(=O)(=O)NC(C)(C)C)c1 [Compound G6] | < 10 µM |
| CCS(=O)(=O)Nc1ccc(-c2ncc(-c3ccc(NC(C)=O)cc3S(=O)(=O)NC(C)(C)C)s2)cc1 [Compound G7] | > 10 µM |
| COC(=O)Nc1ccc(-c2cnc(-c3ccc(NC(=O)OC(C)C)cc3)s2)c(S(=O)(=O)NC(C)(C)C)c1 [Compound H7] | < 1 µM |
| CC(C)NC(=S)Nc1ccc(-c2ncc(-c3ccc(Nc4nccn4C)cc3S(=O)(=O)NC(C)(C)C)s2)cc1 [Compound E17] | > 10 µM |
| CC(C)OC(=O)Nc1ccc(-c2ncc(-c3cc(NC(=O)OCc4ccccc4)ccc3S(=O)(=O)NC(C)(C)C)s2)cc1 [Compound K2] | > 10 µM |
| CNC(=O)c1ccc(-c2cnc(-c3ccc(NC(=O)OC(C)C)cc3)s2)c(S(=O)(=O)NC(C)(C)C)c1 [Compound I5] | < 5 µM |

The remaining lines, values ahead:

| EC50 | SMILES |
| --- | --- |
| > 10 µM | CC(C)NC(=S)Nc1ccc(-c2ncc(-c3ccc(NC(=O)NCc4cncnc4)cc3S(=O)(=O)NC(C)(C)C)s2)cc1 [Compound M5] |
| < 10 µM | CC(C)NC(=S)Nc1ccc(-c2ncc(-c3ccc(NC(=O)OC(C)c4ccccc4)cc3S(=O)(=O)NC(C)(C)C)s2)cc1 (stereo not shown) [Compound M8] |
| > 10 µM | CC(C)NC(=S)Nc1ccc(-c2ncc(-c3ccc(NC(=O)NCc4ncc[nH]4)cc3S(=O)(=O)NC(C)(C)C)s2)cc1 [Compound N5] |
| < 10 µM | COC(=O)NCc1ccc(-c2cnc(-c3ccc(NC(=O)OC(C)C)cc3)s2)c(S(=O)(=O)NC(C)(C)C)c1 [Compound P7] |
| < 10 µM | CCC(=O)NCc1ccc(-c2cnc(-c3ccc(NC(=O)OC(C)C)cc3)s2)c(S(=O)(=O)NC(C)(C)C)c1 [Compound P1] |
| > 10 µM | CC(C)NC(=S)Nc1ccc(-c2ncc(-c3ccc(NC(=O)NCc4nccs4)cc3S(=O)(=O)NC(C)(C)C)s2)cc1 [Compound M6] |
| < 10 µM | CC(C)OC(=O)Nc1ccc(-c2ncc(-c3ccc(CNS(C)(=O)=O)cc3S(=O)(=O)NC(C)(C)C)s2)cc1 [Compound P5] |
| < 5 µM | CC(C)OC(=O)Nc1ccc(-c2ncc(-c3ccc(CNC(=O)Cc4ccncc4)cc3S(=O)(=O)NC(C)(C)C)s2)cc1 [Compound O5] |
| > 10 µM | CC(C)OC(=O)Nc1ccc(-c2ncc(-c3ccc(CNC(=O)Cc4cccnc4)cc3S(=O)(=O)NC(C)(C)C)s2)cc1 [Compound O6] |
| < 10 µM | CC(C)OC(=O)Nc1ccc(-c2ncc(-c3ccc(CNC(=O)c4cncnc4)cc3S(=O)(=O)NC(C)(C)C)s2)cc1 [Compound O8] |
| > 10 µM | COCCC(=O)NCc1ccc(-c2cnc(-c3ccc(NC(=O)OC(C)C)cc3)s2)c(S(=O)(=O)NC(C)(C)C)c1 [Compound O2] |
| < 1 µM | COc1cc(-c2ncc(-c3ccc(NC(=O)OCc4ccccc4)cc3S(=O)(=O)NC(C)(C)C)s2)ccc1NC(=O)OC(C)C [Compound R7] |
| < 10 µM | CC(=O)NCc1ccc(-c2cnc(-c3ccc(NC(=O)OC(C)C)cc3)s2)c(S(=O)(=O)NC(C)(C)C)c1 [Compound Q1, isopropyl N-[4-[5-[4-(acetamidomethyl)-2-(tert-butylsulfamoyl)phenyl]thiazol-2-yl]phenyl]carbamate] |
